Data published in patent US9173976B2, “Compositions and methods for the treatment of bone voids and open fractures” (POLYPID LTD., priority 2012, dated 2015).
Values after ≈ are worked out from the molar mass of the structure shown.

Key:
S. aureus = conditions: Shaarei-Zedek Jerusalem Medical Center Database; cited from earlier work
[1] = Stability of entrapped Doxycycline during hydration in FBS solution at 37° C.; assay type: physicochemical; conditions: after hydration for 21 days, matrix: released+reservoir
Method: Doxycycline is known to degenerate under hydrating conditions. The matrix composition of the present invention can protect Doxycycline from this degradation. The stability of the entrapped Doxycycline during the hydration of the matrix composition (in FBS solution at 37° C.) was tested. At each time point two parameters were tested: 1) Doxycycline molecules released from the medical device of the invention and 2) Doxycycline molecules reservoir in the medical device of the invention. The latter was extracted from the formulation using methylene chloride. The sum of the two Doxycycline quantities represents the overall quantity of Doxycycline in the product at each time point. Free Doxycycline, incubated under the same conditions, was used as control. Results are plotted in FIG. 3.

[2] = test system: Staphylococcus aureus (ATCC 25923); assay: Antibacterial activity of Doxycycline released from coated bone particles; assay type: cell-based; conditions: ATCC25923, released at different time points over 30 days following hydration
Method: The antibacterial activity against Staphylococcus aureus (ATCC 25923), of Doxycycline that was released from bone particles coated with the matrix composition of the invention was followed for a period of 30 days following its hydration (FIG. 4). The MIC (Minimal Inhibitory Concentration) for Doxycycline that was released from the matrix composition at different time points was calculated to be ˜1 μg/ml, and MIC 50 (the concentration that inhibits 50% growth) was ˜0.1 μg/ml, values that were similar to the control free Doxycycline.

| Compound | isolated S. aureus sub species in the clinic resistant to the antibiotic (S. aureus) | overall doxycycline remaining intact, of the initial dose [1] [%] | MIC50 ([2]; read-out: MIC 50 (the concentration that inhibits 50% growth)) [µg/mL] | MIC ([2]; read-out: MIC (Minimal Inhibitory Concentration)) [µg/mL] |
| --- | --- | --- | --- | --- |
| gentamicin | 30-40% |  |  |  |
| C[C@H]1c2cccc(O)c2C(=O)C2=C(O)[C@]3(O)C(=O)C(C(N)=O)=C(O)[C@@H](N(C)C)[C@@H]3[C@@H](O)[C@@H]21 [free Doxycycline, Doxycycline] |  | 20 | ~0.1 (≈ 0.225 µM) | ~1 (≈ 2.25 µM) |
| penicillin | more than 50% |  |  |  |
